In the supplement of paper PMC10307832:

How the values were obtained:
Assay in all cases: relative viability (nuclei count vs DMSO), 5 days (fraction); higher = more cells survive
[1] = system: SK-LU-1
Procedure, shortened: (§1)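 A single step with final 0.05% Triton X-100, 1% formaldehyde and 1 ug/ml Hoechst fixed the cells and stained nuclei 5 days after treatment. Lung cancer cell lines in 1536-well plates had been treated by pin tool the day after seeding with one drug alone or a fixed anchor-drug dose plus five library-drug doses (not always all listed) in √10 steps, and nuclei were counted on 4× images. Relative viability is the ratio of nuclei in treated wells to nuclei in vehicle wells, taken as the median of duplicate plates.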

[2] = system: HARA
Procedure, shortened: as §1

[3] = system: NCI-H727
Procedure, shortened: as §1

[4] = system: EKVX
Procedure, shortened: as §1

[5] = system: NCI-H650
Procedure, shortened: as §1

[6] = system: NCI-H2126
Procedure, shortened: as §1

[7] = system: LOU-NH91
Procedure, shortened: as §1

[8] = system: NCI-H2405
Procedure, shortened: as §1

[9] = system: H3255
Procedure, shortened: as §1

[10] = system: PC-3 [JPC-3]
Procedure, shortened: as §1

[11] = system: COR-L 105
Procedure, shortened: as §1

[12] = system: NCI-H23
Procedure, shortened: as §1

[13] = system: HCC-827
Procedure, shortened: as §1

[14] = system: LCLC-103H
Procedure, shortened: as §1

[15] = system: NCI-H3122
Procedure, shortened: as §1

[16] = system: ChaGo-K-1
Procedure, shortened: as §1

[17] = system: NCI-H661
Procedure, shortened: as §1

[18] = system: HOP-62
Procedure, shortened: as §1

[19] = system: SW 900
Procedure, shortened: as §1

[20] = system: 201T
Procedure, shortened: as §1

[21] = system: NCI-H1975
Procedure, shortened: as §1

`Cc1cn(-c2cc(NC(=O)c3ccc(C)c(Nc4nccc(-c5cccnc5)n4)c3)cc(C(F)(F)F)c2)cn1` [Nilotinib] + Nc1ncn([C@H]2C[C@H](O)[C@@H](CO)O2)c(=O)n1 [Decitabine] (partner 2 µM) gave a relative viability ([1]; first compound 0.001 µM) of 0.532, a relative viability ([1]; first compound 0.003162 µM) of 0.627 and a relative viability ([1]; first compound 0.01 µM) of 0.699. The relative viability ([1]; first compound 0.03162 µM) was 0.424, the relative viability ([1]; first compound 0.1 µM) was 0.532 and the relative viability ([2]; first compound 0.001 µM) was 0.383. The relative viability ([2]; first compound 0.003162 µM) was 0.681, the relative viability ([2]; first compound 0.01 µM) was 0.856 and the relative viability ([2]; first compound 0.03162 µM) was 0.47. The relative viability ([2]; first compound 0.1 µM) was 0.649, the relative viability ([3]; first compound 0.001 µM) was 0.67 and the relative viability ([3]; first compound 0.003162 µM) was 0.818. For the same molecule, the relative viability ([3]; first compound 0.01 µM) was 0.825, the relative viability ([3]; first compound 0.03162 µM) was 0.715 and the relative viability ([3]; first compound 0.1 µM) was 0.606. For the same molecule, the relative viability ([4]; first compound 0.001 µM) was 0.307, the relative viability ([4]; first compound 0.003162 µM) was 0.413 and the relative viability ([4]; first compound 0.01 µM) was 0.394. The relative viability ([4]; first compound 0.03162 µM) was 0.305, the relative viability ([4]; first compound 0.1 µM) was 0.648 and the relative viability ([5]; first compound 0.001 µM) was 0.295. For the same molecule, the relative viability ([5]; first compound 0.003162 µM) was 0.379, the relative viability ([5]; first compound 0.01 µM) was 0.387 and the relative viability ([5]; first compound 0.03162 µM) was 0.315. It also gave a relative viability ([5]; first compound 0.1 µM) of 0.306, a relative viability ([6]; first compound 0.001 µM) of 0.541 and a relative viability ([6]; first compound 0.003162 µM) of 0.675. It also gave a relative viability ([6]; first compound 0.01 µM) of 0.564, a relative viability ([6]; first compound 0.03162 µM) of 0.614 and a relative viability ([6]; first compound 0.1 µM) of 0.568. For the same molecule, the relative viability ([7]; first compound 0.001 µM) was 0.776, the relative viability ([7]; first compound 0.003162 µM) was 0.864 and the relative viability ([7]; first compound 0.01 µM) was 0.889. For the same molecule, the relative viability ([7]; first compound 0.03162 µM) was 0.898, the relative viability ([7]; first compound 0.1 µM) was 0.837 and the relative viability ([8]; first compound 0.001 µM) was 0.724. It also gave a relative viability ([8]; first compound 0.003162 µM) of 0.815, a relative viability ([8]; first compound 0.01 µM) of 0.798 and a relative viability ([8]; first compound 0.03162 µM) of 0.65. It also gave a relative viability ([8]; first compound 0.1 µM) of 0.509, a relative viability ([9]; first compound 0.001 µM) of 0.549 and a relative viability ([9]; first compound 0.003162 µM) of 0.659. The relative viability ([9]; first compound 0.03162 µM) was 0.667, the relative viability ([9]; first compound 0.1 µM) was 0.692 and the relative viability ([10]; first compound 0.001 µM) was 0.873. The relative viability ([10]; first compound 0.01 µM) was 1, the relative viability ([10]; first compound 0.03162 µM) was 0.897 and the relative viability ([10]; first compound 0.1 µM) was 1.01. It also gave a relative viability ([11]; first compound 0.001 µM) of 0.735, a relative viability ([11]; first compound 0.003162 µM) of 0.734 and a relative viability ([11]; first compound 0.01 µM) of 0.743. The relative viability ([11]; first compound 0.03162 µM) was 0.732, the relative viability ([11]; first compound 0.1 µM) was 0.751 and the relative viability ([12]; first compound 0.001 µM) was 0.355. For the same molecule, the relative viability ([12]; first compound 0.003162 µM) was 0.352, the relative viability ([12]; first compound 0.01 µM) was 0.344 and the relative viability ([12]; first compound 0.03162 µM) was 0.351. For the same molecule, the relative viability ([12]; first compound 0.1 µM) was 0.273, the relative viability ([13]; first compound 0.001 µM) was 0.303 and the relative viability ([13]; first compound 0.003162 µM) was 0.41. For the same molecule, the relative viability ([13]; first compound 0.03162 µM) was 0.296, the relative viability ([13]; first compound 0.1 µM) was 0.328 and the relative viability ([14]; first compound 0.001 µM) was 0.77. It also gave a relative viability ([14]; first compound 0.003162 µM) of 0.883, a relative viability ([14]; first compound 0.01 µM) of 0.815 and a relative viability ([14]; first compound 0.03162 µM) of 0.744. It also gave a relative viability ([14]; first compound 0.1 µM) of 0.721, a relative viability ([15]; first compound 0.001 µM) of 0.504 and a relative viability ([15]; first compound 0.003162 µM) of 0.468. The relative viability ([15]; first compound 0.01 µM) was 0.505, the relative viability ([15]; first compound 0.03162 µM) was 0.471 and the relative viability ([15]; first compound 0.1 µM) was 0.314. The relative viability ([16]; first compound 0.001 µM) was 0.528, the relative viability ([16]; first compound 0.003162 µM) was 0.584 and the relative viability ([16]; first compound 0.01 µM) was 0.585. It also gave a relative viability ([16]; first compound 0.03162 µM) of 0.519, a relative viability ([16]; first compound 0.1 µM) of 0.577 and a relative viability ([17]; first compound 0.001 µM) of 0.554. For the same molecule, the relative viability ([17]; first compound 0.003162 µM) was 0.56, the relative viability ([17]; first compound 0.01 µM) was 0.644 and the relative viability ([17]; first compound 0.03162 µM) was 0.469. For the same molecule, the relative viability ([17]; first compound 0.1 µM) was 0.546, the relative viability ([18]; first compound 0.003162 µM) was 0.276 and the relative viability ([18]; first compound 0.03162 µM) was 0.464. For the same molecule, the relative viability ([19]; first compound 0.003162 µM) was 0.579, the relative viability ([19]; first compound 0.01 µM) was 0.724 and the relative viability ([19]; first compound 0.03162 µM) was 0.743. It also gave a relative viability ([19]; first compound 0.1 µM) of 0.577, a relative viability ([20]; first compound 0.001 µM) of 0.851 and a relative viability ([20]; first compound 0.003162 µM) of 0.973. For the same molecule, the relative viability ([20]; first compound 0.01 µM) was 0.944, the relative viability ([20]; first compound 0.03162 µM) was 1.01 and the relative viability ([20]; first compound 0.1 µM) was 0.814. The relative viability ([21]; first compound 0.001 µM) was 0.339, the relative viability ([21]; first compound 0.003162 µM) was 0.393 and the relative viability ([21]; first compound 0.01 µM) was 0.383. For the same molecule, the relative viability ([21]; first compound 0.03162 µM) was 0.389 and the relative viability ([21]; first compound 0.1 µM) was 0.275.
